Our source for the EC50 values is US20260200890A1, “ADAR1 INHIBITORS AND METHODS OF USING THE SAME” (AVAMMUNE THERAPEUTICS INC., priority 2022, published 2026).

In the assay the target is T1, ADAR1 (Homo sapiens, UniProt P55265).
T1 construct: endogenous in cells; host or cells: p110 KO A549 dual cells
T1 sequence (P55265 1-1226): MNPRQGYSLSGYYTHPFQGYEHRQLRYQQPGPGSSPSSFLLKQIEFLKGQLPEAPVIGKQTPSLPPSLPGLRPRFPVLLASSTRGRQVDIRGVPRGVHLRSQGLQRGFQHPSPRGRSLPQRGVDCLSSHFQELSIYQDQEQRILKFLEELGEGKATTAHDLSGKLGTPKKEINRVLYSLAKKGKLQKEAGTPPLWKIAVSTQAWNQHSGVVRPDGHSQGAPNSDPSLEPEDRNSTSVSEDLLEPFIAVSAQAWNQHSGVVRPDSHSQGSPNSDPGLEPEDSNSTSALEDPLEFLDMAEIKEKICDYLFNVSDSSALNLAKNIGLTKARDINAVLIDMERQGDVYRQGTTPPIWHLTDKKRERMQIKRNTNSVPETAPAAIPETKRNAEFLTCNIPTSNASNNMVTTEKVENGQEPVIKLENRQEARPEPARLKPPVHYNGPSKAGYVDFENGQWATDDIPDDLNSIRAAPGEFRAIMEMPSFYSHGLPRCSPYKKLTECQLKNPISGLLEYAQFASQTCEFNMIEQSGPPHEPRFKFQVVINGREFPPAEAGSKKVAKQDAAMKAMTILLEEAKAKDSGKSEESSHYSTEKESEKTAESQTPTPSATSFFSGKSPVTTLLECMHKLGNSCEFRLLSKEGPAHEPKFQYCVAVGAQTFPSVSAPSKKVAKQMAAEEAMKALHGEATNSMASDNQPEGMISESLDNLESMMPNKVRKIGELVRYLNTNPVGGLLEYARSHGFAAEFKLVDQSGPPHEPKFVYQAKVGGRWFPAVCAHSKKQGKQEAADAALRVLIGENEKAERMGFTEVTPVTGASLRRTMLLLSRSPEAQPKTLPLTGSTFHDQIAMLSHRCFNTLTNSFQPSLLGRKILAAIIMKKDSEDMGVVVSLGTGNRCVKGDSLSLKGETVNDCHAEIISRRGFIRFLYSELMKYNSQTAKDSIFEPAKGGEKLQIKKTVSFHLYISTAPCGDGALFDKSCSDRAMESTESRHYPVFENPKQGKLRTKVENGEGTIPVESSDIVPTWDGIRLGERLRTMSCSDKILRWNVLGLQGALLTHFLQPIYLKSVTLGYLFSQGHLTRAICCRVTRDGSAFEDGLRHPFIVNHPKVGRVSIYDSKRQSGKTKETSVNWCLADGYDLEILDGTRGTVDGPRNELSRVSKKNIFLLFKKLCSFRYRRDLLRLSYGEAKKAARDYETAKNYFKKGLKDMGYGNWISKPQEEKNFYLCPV
In words: ADAR1 Inhibition Assay (IFN fold-induction, Quanti-Luc luminescence, p110 KO A549 dual cells). In kind it is cell-based. Conditions: IFN fold-induction vs DMSO, 24 and 48 h. The protocol: An ADAR1 Inhibition Assay was used to determine the biological activity (EC50) of compounds disclosed herein. 100 μL of p110 KO A549 dual cell suspension in supplemented DMEM (20,000 cells per well) was added into a flat bottom 96 well plate. Next day, post media change, 180 μL of supplemented DMEM was added. 20 μL of test compound or positive control was added to the respective wells (Final concentration of DMSO is 1%). The plate was incubated for 24 and 48 hours at 37° C. in a 5% CO2 incubator. After 24 and 48 h, 20 μL of cell suspension was taken in black well plates and 50 μL of Quanti-Luc was added to each well and luminescence was measured using a microplate reader (Spectra Max). IFN fold-induction was plotted considering DMSO as control using the relative luminescence unit (RLU) values. (Fold induction: Sample RLU/Average DMSO RLU).

`CCOC(=O)c1cc(-c2ccccc2)sc1NC(=O)COC(=O)c1cccc(NS(=O)(=O)N2CCOCC2)c1` [Compound 136] registered an EC50 of more than 100 µM.
Next, `CCOC(=O)c1cc(-c2ccccc2)sc1NC(=O)C1CCN(C(=O)c2cccc(NS(C)(=O)=O)c2)C1` (stereo not shown) [Compound 138, Ethyl 2-(1-(3-(methylsulfonamido)benzoyl)pyrrolidine-3-carboxamido)-5-phenylthiophene-3-carboxylate]: not above 25 µM.
The compound `CCOC(=O)c1cc(-c2ccccc2)sc1CC(=O)C1CCCN1C(=O)c1cccc(C#N)c1` (stereo not shown) [Compound 139] yielded an EC50 of more than 100 µM.
For `CCOC(=O)c1cc(-c2ccccc2)sc1NC(=O)COC(=O)c1cccc(NS(=O)(=O)N2CCCCC2)c1` [Compound 140], the EC50 is more than 100 µM.
The result for `CCOC(=O)c1nc(-c2ccccc2)[nH]c1NC(=O)COC(=O)c1cccc(NS(C)(=O)=O)c1` [Compound 141] reads more than 100 µM; that for `CCOC(=O)c1cc(-c2ccccc2)sc1NC(=O)COC(=O)C1CCCN(S(C)(=O)=O)C1` (stereo not shown) [Compound 142], more than 100 µM.
The compound `CCOC(=O)c1cc(-c2ccccc2)sc1NC(=O)CN1CCN(S(C)(=O)=O)CC1` [Compound 143] returned an EC50 of more than 100 µM.
As to `CCOC(=O)c1nc(-c2ccccc2)oc1NC(=O)COC(=O)c1cccc(NS(C)(=O)=O)c1` [Compound 145], the EC50 is more than 100 µM.
Next, `CCOC(=O)c1cc(-c2ccccc2)sc1NC(=O)C1CCN1C(=O)c1cccc(NS(C)(=O)=O)c1` (stereo not shown) [Compound 146]: more than 100 µM; `CCOC(=O)c1cc(-c2ccccc2)sc1NC(=O)C1CC2(CC2)CN1C(=O)c1cccc(NS(C)(=O)=O)c1` (stereo not shown) [Compound 148]: more than 100 µM; `CCOC(=O)c1cc(-c2ccccc2)sc1NC(=O)/C=C/c1cccc(NS(C)(=O)=O)c1` [Compound 149]: more than 100 µM.
The result for `CCOC(=O)c1cc(-c2ccccc2)sc1NC(=O)CN(C)C(=O)c1cccc(NS(C)(=O)=O)c1` [Compound 151] reads more than 100 µM; that for `CCOC(=O)c1cc(-c2ccccc2)sc1NC(=O)C1CCCN(C(=O)c2cccc(NS(C)(=O)=O)c2)C1` (stereo not shown) [Compound 152], more than 100 µM; that for `CS(=O)(=O)Nc1cccc(C(=O)OCC(=O)Nc2nnc(-c3ccccc3)s2)c1` [Compound 153], not above 25 µM.
The result for `CS(=O)(=O)Nc1cccc(C(=O)OCC(=O)Nc2sc(-c3ccccc3)cc2C(=O)O)c1` [Compound 154] reads more than 100 µM.
The compound `CCOC(=O)c1cc(-c2ccccc2)sc1NC(=O)CN(C(=O)c1cccc(NS(C)(=O)=O)c1)C1CC1` [Compound 155] gave an EC50 of more than 100 µM.
Next, `CCOC(=O)c1cc(-c2ccccc2)sc1NC(=O)[C@H]1CCN(C(=O)c2cccc(NS(C)(=O)=O)c2)C1` [Compound 156]: not above 25 µM; `CCOC(=O)c1cc(-c2ccccc2)sc1NC(=O)[C@H]1CCN(C(=O)c2cccc(NS(C)(=O)=O)c2)C1` [Compound 157]: more than 100 µM.
The compound `CCOC(=O)c1cc(-c2ccccc2)sc1NC(=O)C1CCN(C(=O)c2cccc(NS(=O)(=O)N3CCOCC3)c2)C1` (stereo not shown) [Compound 158] registered an EC50 of more than 100 µM.
On to `CCOC(=O)c1cc(-c2cc[nH]n2)sc1NC(=O)COC(=O)c1cccc(NS(C)(=O)=O)c1` [Compound 159], for which the EC50 was more than 100 µM.
The result for `CCOC(=O)c1cc(-c2ccccc2)sc1NC(=O)COC1CCN(S(C)(=O)=O)CC1` [Compound 160] reads more than 100 µM.
`CCOC(=O)c1cc(-c2ccccc2)sc1NC(=O)CN(C(=O)c1cccc(NS(C)(=O)=O)c1)C(C)C` [Compound 162] returned an EC50 of more than 100 µM.
For `CCOC(=O)c1cc(-c2ccccc2)sc1NC(=O)CC1CCN(C(=O)c2cccc(NS(C)(=O)=O)c2)CC1` [Compound 164], the EC50 was more than 100 µM.
Compound `CCOC(=O)c1cc(-c2ccccc2)sc1NC(=O)CCc1cccc(NS(C)(=O)=O)c1` [Compound 165] came in with a half-maximal effective concentration (EC50) of more than 100 µM.
`CCOC(=O)c1cc(-c2ccccc2)sc1NC(=O)COC(=O)Nc1cccc(NS(C)(=O)=O)c1` [Compound 166] registered an EC50 of more than 100 µM.
